Test results published in ChEMBL document CHEMBL5113480, “Discovery of novel biphenyl-substituted pyridone derivatives as potent non-nucleoside reverse transcriptase inhibitors with promising oral bioavailability” (Eur J Med Chem, 2022).

Tests used:
[1] = system: Human immunodeficiency virus 1; assay: Antiviral activity against HIV-1 ROD infected in human MT4 cells assessed as reduction in viral replication by MTT assay; type: functional, organism-based
[2] = Cytotoxicity against human MT4 cells assessed as reduction on cell growth by MTT assay; type: toxicity, cell-based
[3] = Selectivity index, ratio of CC50 for cytotoxicity against human MT4 cells to EC50 of Anti-HIV activity against HIV-1 IIIB infected in human MT4 cells; type: toxicity, cell-based; settings: read-out: Ratio CC50/EC50
[4] = system: Human immunodeficiency virus 1; assay: Antiviral activity against HIV-1 IIIB infected in human MT4 cells assessed as reduction in viral replication by MTT assay; type: functional, organism-based; settings: Human immunodeficiency virus 1, IIIB
[5] = system: Human immunodeficiency virus 1; assay: Antiviral activity against HIV-1 Y181C mutant infected in human MT4 cells assessed as reduction in viral replication by MTT assay; type: functional, organism-based; settings: Human immunodeficiency virus 1, Y181C mutant
[6] = system: Human immunodeficiency virus 1; assay: Antiviral activity against HIV-1 Y188L mutant infected in human MT4 cells assessed as reduction in viral replication by MTT assay; type: functional, organism-based; settings: Human immunodeficiency virus 1, Y188L mutant
[7] = system: Human immunodeficiency virus 1; assay: Antiviral activity against HIV-1 L100I mutant infected in human MT4 cells assessed as reduction in viral replication by MTT assay; type: functional, organism-based; settings: Human immunodeficiency virus 1, L100I mutant
[8] = system: Human immunodeficiency virus 1; assay: Antiviral activity against HIV-1 K103N-Y181C mutant infected in human MT4 cells assessed as reduction in viral replication by MTT assay; type: functional, organism-based; settings: Human immunodeficiency virus 1, K103N-Y181C mutant
[9] = system: Human immunodeficiency virus 1; assay: Antiviral activity against HIV-1 K103N mutant infected in human MT4 cells assessed as reduction in viral replication by MTT assay; type: functional, organism-based; settings: Human immunodeficiency virus 1, K103N mutant
[10] = target: Human immunodeficiency virus type 1 reverse transcriptase (Human immunodeficiency virus 1, UniProt Q72547); assay: Inhibition of wild type HIV-1 Reverse transcriptase
[11] = system: Human immunodeficiency virus 1; assay: Antiviral activity against HIV-1 E138K mutant infected in human MT4 cells assessed as reduction in viral replication by MTT assay; type: functional, organism-based; settings: Human immunodeficiency virus 1, E138K mutant
[12] = system: Human immunodeficiency virus 1; assay: Antiviral activity against HIV-1 F227L-V106A mutant infected in human MT4 cells assessed as reduction in viral replication by MTT assay; type: functional, organism-based; settings: Human immunodeficiency virus 1, F227L-V106A mutant

Compound: Cc1cccc(-c2ccc(Oc3c(C(F)(F)F)ccn(Cc4n[nH]c(=O)n4C)c3=O)c(Cl)c2)c1
- EC50 [1]: > 35 µM
- CC50 [2]: 24.7 µM
- selectivity ratio [3]: < 1
- EC50 [4]: > 35 µM

Compound: Cn1c(Cn2ccc(C(F)(F)F)c(Oc3ccc(-c4ccc(C#N)cc4)cc3)c2=O)n[nH]c1=O
- EC50 [5]: 38.8 µM
- EC50 [6]: > 35 µM
- EC50 [7]: 7.68 µM
- EC50 [8]: > 35 µM
- EC50 [9]: 26.9 µM
- EC50 [1]: > 35 µM
- CC50 [2]: 74.3 µM
- IC50 [10]: 15.9 µM
- EC50 [11]: 23.7 µM
- selectivity ratio [3]: 11.9
- EC50 [12]: > 35 µM
- EC50 [4]: 6.23 µM

Compound: Cn1c(Cn2ccc(C(F)(F)F)c(Oc3ccc(-c4cccc(C#N)c4)cc3)c2=O)n[nH]c1=O
- EC50 [5]: 39.1 µM
- EC50 [6]: > 35 µM
- EC50 [7]: 10.8 µM
- EC50 [8]: > 35 µM
- EC50 [9]: 14.3 µM
- EC50 [1]: > 35 µM
- CC50 [2]: 114 µM
- IC50 [10]: 14.4 µM
- EC50 [11]: 12.2 µM
- selectivity ratio [3]: 23.7
- EC50 [12]: > 35 µM
- EC50 [4]: 4.79 µM

Compound: Cc1cc(Oc2c(C(F)(F)F)ccn(Cc3n[nH]c(=O)n3C)c2=O)ccc1-c1ccc(F)cc1
- EC50 [1]: > 35 µM
- CC50 [2]: 23.7 µM
- selectivity ratio [3]: ≤ 4
- EC50 [4]: > 35 µM

Compound: Cc1ccc(-c2ccc(Oc3c(C(F)(F)F)ccn(Cc4n[nH]c(=O)n4C)c3=O)c(Cl)c2)cc1
- EC50 [1]: > 35 µM
- CC50 [2]: 50.9 µM
- selectivity ratio [3]: < 1
- EC50 [4]: > 35 µM

Compound: Cn1c(Cn2ccc(C(F)(F)F)c(Oc3ccc(-c4cc(F)cc(C#N)c4)cc3)c2=O)n[nH]c1=O
- EC50 [5]: 42.2 µM
- EC50 [6]: > 35 µM
- EC50 [7]: 9.01 µM
- EC50 [8]: > 35 µM
- EC50 [9]: 15.5 µM
- EC50 [1]: > 35 µM
- CC50 [2]: 90.5 µM
- IC50 [10]: 8.1 µM
- EC50 [11]: 13.9 µM
- selectivity ratio [3]: 5.95
- EC50 [12]: > 35 µM
- EC50 [4]: 15.2 µM

Compound: Cc1ccc(-c2ccc(Oc3c(C(F)(F)F)ccn(Cc4n[nH]c(=O)n4C)c3=O)cc2F)cc1
- EC50 [1]: > 35 µM
- CC50 [2]: 28.2 µM
- selectivity ratio [3]: 3.52
- EC50 [4]: 8.05 µM

Compound: Cc1ccc(-c2cc(F)c(Oc3c(C(F)(F)F)ccn(Cc4n[nH]c(=O)n4C)c3=O)c(F)c2)cc1
- EC50 [1]: > 35 µM
- CC50 [2]: 20.5 µM
- selectivity ratio [3]: < 1
- EC50 [4]: > 35 µM

Compound: Cn1c(Cn2ccc(C(F)(F)F)c(Oc3ccc(-c4ccc(F)c(C#N)c4)cc3)c2=O)n[nH]c1=O
- EC50 [1]: > 35 µM
- CC50 [2]: 49.1 µM
- selectivity ratio [3]: 6.75
- EC50 [4]: 7.28 µM

Compound: Cc1cccc(-c2ccc(Oc3c(C(F)(F)F)ccn(Cc4n[nH]c(=O)n4C)c3=O)c(C)c2)c1
- EC50 [1]: > 35 µM
- CC50 [2]: 19.1 µM
- selectivity ratio [3]: ≤ 2
- EC50 [4]: > 35 µM

Compound: Cn1c(Cn2ccc(C(F)(F)F)c(Oc3c(F)cc(-c4ccc(F)cc4)cc3F)c2=O)n[nH]c1=O
- EC50 [1]: > 35 µM
- CC50 [2]: 18.2 µM
- selectivity ratio [3]: ≤ 2
- EC50 [4]: > 35 µM

Compound: Cc1cccc(-c2ccc(Oc3c(C(F)(F)F)ccn(Cc4n[nH]c(=O)n4C)c3=O)c(F)c2)c1
- EC50 [1]: > 35 µM
- CC50 [2]: 20.3 µM
- selectivity ratio [3]: ≤ 1
- EC50 [4]: > 35 µM

Compound: Cn1c(Cn2ccc(C(F)(F)F)c(Oc3ccc(-c4cccc(F)c4)cc3)c2=O)n[nH]c1=O
- EC50 [1]: > 35 µM
- CC50 [2]: 48.3 µM
- selectivity ratio [3]: < 1
- EC50 [4]: > 35 µM

Compound: Cn1c(Cn2ccc(C(F)(F)F)c(Oc3ccc(-c4cccc(F)c4)cc3F)c2=O)n[nH]c1=O
- EC50 [1]: > 35 µM
- CC50 [2]: 46.8 µM
- selectivity ratio [3]: ≤ 1
- EC50 [4]: > 35 µM

Compound: Cc1ccc(-c2ccc(Oc3c(C(F)(F)F)ccn(Cc4n[nH]c(=O)n4C)c3=O)cc2)cc1
- EC50 [1]: > 35 µM
- CC50 [2]: 25 µM
- selectivity ratio [3]: < 1
- EC50 [4]: > 35 µM

Compound: Cc1ccc(-c2ccc(Oc3c(C(F)(F)F)ccn(Cc4n[nH]c(=O)n4C)c3=O)cc2C)cc1
- EC50 [1]: > 35 µM
- CC50 [2]: 26.6 µM
- selectivity ratio [3]: < 1
- EC50 [4]: > 35 µM

Compound: Cn1c(Cn2ccc(C(F)(F)F)c(Oc3ccc(-c4cccc(F)c4)cc3Cl)c2=O)n[nH]c1=O
- EC50 [1]: > 35 µM
- CC50 [2]: 20.1 µM
- selectivity ratio [3]: < 1
- EC50 [4]: > 35 µM

Compound: Cn1c(Cn2ccc(C(F)(F)F)c(Oc3ccc(-c4ccc(F)cc4)cc3Cl)c2=O)n[nH]c1=O
- EC50 [1]: > 35 µM
- CC50 [2]: 16.7 µM
- selectivity ratio [3]: < 1
- EC50 [4]: > 35 µM

Compound: Cc1cccc(-c2ccc(Oc3c(C(F)(F)F)ccn(Cc4n[nH]c(=O)n4C)c3=O)cc2F)c1
- EC50 [5]: > 35 µM
- EC50 [6]: > 35 µM
- EC50 [7]: 4.83 µM
- EC50 [8]: > 35 µM
- EC50 [9]: > 35 µM
- EC50 [1]: > 35 µM
- CC50 [2]: 27.7 µM
- IC50 [10]: 17.9 µM
- selectivity ratio [3]: 6.05
- EC50 [12]: 7.66 µM
- EC50 [4]: 4.58 µM

Compound: Cc1ccc(-c2ccc(Oc3c(C(F)(F)F)ccn(Cc4n[nH]c(=O)n4C)c3=O)c(F)c2)cc1
- EC50 [1]: > 35 µM
- CC50 [2]: 38 µM
- selectivity ratio [3]: < 1
- EC50 [4]: > 35 µM

Compound: Cn1c(Cn2ccc(C(F)(F)F)c(Oc3ccc(-c4ccc(F)cc4)cc3F)c2=O)n[nH]c1=O
- EC50 [1]: > 35 µM
- CC50 [2]: 24.1 µM
- selectivity ratio [3]: < 1
- EC50 [4]: > 35 µM

Compound: Cc1cccc(-c2cc(F)c(Oc3c(C(F)(F)F)ccn(Cc4n[nH]c(=O)n4C)c3=O)c(F)c2)c1
- EC50 [1]: > 35 µM
- CC50 [2]: 20.9 µM
- selectivity ratio [3]: < 1
- EC50 [4]: > 35 µM

Compound: Cn1c(Cn2ccc(C(F)(F)F)c(Oc3ccc(-c4ccc(F)cc4)c(F)c3)c2=O)n[nH]c1=O
- EC50 [1]: > 35 µM
- CC50 [2]: 25.6 µM
- selectivity ratio [3]: 2.87
- EC50 [4]: 8.92 µM

Compound: Cc1ccc(-c2ccc(Oc3c(C(F)(F)F)ccn(Cc4n[nH]c(=O)n4C)c3=O)c(C)c2)cc1
- EC50 [1]: > 35 µM
- CC50 [2]: 16.9 µM
- selectivity ratio [3]: ≤ 1
- EC50 [4]: > 35 µM

Compound: Cn1c(Cn2ccc(C(F)(F)F)c(Oc3ccc(-c4cccc(C#N)c4)c(F)c3)c2=O)n[nH]c1=O
- EC50 [5]: 4.84 µM
- EC50 [6]: 46.3 µM
- EC50 [7]: 0.7 µM
- EC50 [8]: 30.6 µM
- EC50 [9]: 1.22 µM
- EC50 [1]: > 35 µM
- CC50 [2]: 104 µM
- IC50 [10]: 0.45 µM
- EC50 [11]: 0.8 µM
- selectivity ratio [3]: 424
- EC50 [12]: > 35 µM
- EC50 [4]: 0.25 µM

Compound: Cn1c(Cn2ccc(C(F)(F)F)c(Oc3ccc(-c4ccc(F)cc4)cc3)c2=O)n[nH]c1=O
- EC50 [1]: > 35 µM
- CC50 [2]: 36.5 µM
- selectivity ratio [3]: < 1
- EC50 [4]: > 35 µM

Compound: Cc1cccc(-c2ccc(Oc3c(C(F)(F)F)ccn(Cc4n[nH]c(=O)n4C)c3=O)cc2)c1
- EC50 [1]: > 35 µM
- CC50 [2]: 32.3 µM
- selectivity ratio [3]: < 1
- EC50 [4]: > 35 µM

Compound: Cc1cc(C#N)cc(C)c1Oc1nc(Nc2ccc(C#N)cc2)nc(N)c1Br [ETRAVIRINE]
- EC50 [6]: 0.018 µM
- EC50 [8]: 0.031 µM
- EC50 [1]: > 35 µM
- CC50 [2]: > 4.6 µM
- selectivity ratio [3]: > 1600
- EC50 [4]: 0.029 µM
